Series [1] in a line: Solubility in organic acid buffers (fumaric, aspartic, glutamic acid).
A short description of series [2]: pH-dependent solubility in aqueous buffer.
Series [3] is described as follows: physchem.
A short description of series [4]: physchem. This is another data set of the same source.
For series [5] the following is noted: cited from earlier work.
For series [6] the following is noted: cited from earlier work. This is another data set of the same source.
Setting [7] is: pH 6.8, aqueous buffer, solubility.

Converted amounts (≈) assume the structure as drawn. Where a name gives a salt, the structure may show the parent alone. Read-outs that look alike come from different tables or passages of the source.

Results on three compounds are retold here after patent publication US8133506B2, “Drug delivery systems comprising weakly basic drugs and organic acids” (Aptalis Pharmatech, Inc., priority 2008, dated 2012).

In general, solubility refers to the concentration that dissolves in the medium under given conditions. In the case of `O=C1CN=C(c2ccccc2Cl)c2cc([N+](=O)[O-])ccc2N1` [Clonazepam], the solubility entry in series [1] (buffer at pH 2.3, higher concentration of fumaric acid) is “about 11.6 μg/mL”; in series [1] (buffer at pH 6.8, lower concentration of fumaric acid) it was roughly 0.0069 mg/mL (≈ 21.9 µM); in series [1] (pH 2.3, aqueous buffer), 0.0116 mg/mL (≈ 36.7 µM); in series [1] (pH 2.8, aqueous buffer), 0.0103 mg/mL (≈ 32.6 µM); in series [1] (pH 3.2, aqueous buffer), 0.0096 mg/mL (≈ 30.4 µM); in series [1] (pH 3.7, aqueous buffer), 0.0098 mg/mL (≈ 31 µM). For the same compound, the solubility in series [1] (pH 5.5, aqueous buffer) was found to be 0.29 mg/mL (≈ 919 µM); in series [2] (pH 2.2, aqueous buffer) it was 0.0114 mg/mL (≈ 36.1 µM); in series [2] (pH 2.8, aqueous buffer), 0.0102 mg/mL (≈ 32.3 µM); in series [2] (pH 3.2, aqueous buffer), 0.0096 mg/mL (≈ 30.4 µM); in series [2] (pH 3.8, aqueous buffer) it was 0.0092 mg/mL (≈ 29.1 µM); in series [2] (pH 4.2, aqueous buffer), 0.0091 mg/mL (≈ 28.8 µM). Further, the solubility is 0.0086 mg/mL (≈ 27.2 µM) in series [2] (pH 4.8, aqueous buffer); 0.0084 mg/mL (≈ 26.6 µM) in series [2] (pH 5.4, aqueous buffer); 0.008 mg/mL (≈ 25.3 µM) in series [2] (pH 6.2, aqueous buffer); “practically insoluble” in series [2] (physiological pHs).

In the case of `COc1cc(C(C)=O)ccc1OCCCN1CCC(c2noc3cc(F)ccc23)CC1` [Iloperidone], the solubility was 3.9 mg/mL (≈ 9140 µM) in series [3] (pH 1.2, simulated gastric fluid, Solubility of Iloperidone in Aqueous Buffer); 1.44 mg/mL (≈ 3370 µM) in series [3] (pH 3.01, aqueous buffer, Solubility of Iloperidone in Aqueous Buffer); 0.917 mg/mL (≈ 2150 µM) in series [3] (pH 3.06, aqueous buffer, Solubility of Iloperidone in Aqueous Buffer); 0.681 mg/mL (≈ 1600 µM) in series [3] (pH 4.08, aqueous buffer, Solubility of Iloperidone in Aqueous Buffer); 0.586 mg/mL (≈ 1370 µM) in series [3] (pH 4.46, aqueous buffer, Solubility of Iloperidone in Aqueous Buffer); 0.341 mg/mL (≈ 800 µM) in series [3] (pH 5.09, aqueous buffer, Solubility of Iloperidone in Aqueous Buffer). For the same compound, the solubility in series [3] (pH 6.11, aqueous buffer, Solubility of Iloperidone in Aqueous Buffer) was 0.117 mg/mL (≈ 274 µM); in series [3] (setting [7]), roughly 0.03 mg/mL (≈ 70.3 µM); in series [3] (pH 7.02, aqueous buffer, Solubility of Iloperidone in Aqueous Buffer) it was 0.011 mg/mL (≈ 25.8 µM); in series [3] (simulated gastric fluid, solubility) it was roughly 3 mg/mL (≈ 7030 µM).

`Cc1nccn1CC1CCc2c(c3ccccc3n2C)C1=O` (stereo not drawn) [Ondansetron HCl, ondansetron hydrochloride]: the solubility in series [3] (pH 2.2, aqueous buffer, Solubility of Ondansetron HCl in Aqueous Buffer) was determined as 23.3 mg/mL; in series [3] (pH 3.2, aqueous buffer, Solubility of Ondansetron HCl in Aqueous Buffer), 25.7 mg/mL; in series [3] (pH 4.2, aqueous buffer, Solubility of Ondansetron HCl in Aqueous Buffer), 10.9 mg/mL; in series [3] (pH 5, aqueous buffer, Solubility of Ondansetron HCl in Aqueous Buffer), 3.6 mg/mL; in series [3] (pH 5.6, aqueous buffer, Solubility of Ondansetron HCl in Aqueous Buffer), 1.7 mg/mL; in series [3] (pH 6.2, aqueous buffer, Solubility of Ondansetron HCl in Aqueous Buffer), 0.4 mg/mL. Besides, the solubility in series [3] (pH 6.8, aqueous buffer, Solubility of Ondansetron HCl in Aqueous Buffer) was 0.036 mg/mL; in series [3] (setting [7]), less than 0.05 mg/mL; in series [3] (pH 7, aqueous buffer, Solubility of Ondansetron HCl in Aqueous Buffer), 0.025 mg/mL; in series [4] (pH 2.01, aqueous buffer), 26.9 mg/mL; in series [4] (pH 2.14, aqueous buffer) it was 27 mg/mL; in series [4] (pH 2.4, aqueous buffer), 26.1 mg/mL. The solubility in series [4] (pH 2.75, aqueous buffer) was 26.2 mg/mL; in series [4] (pH 3.49, aqueous buffer), 26 mg/mL; in series [4] (pH 4.05, aqueous buffer), 26.1 mg/mL; in series [5] (low pH gastric fluids), “freely soluble”; in series [5] (pH >6), “practically insoluble”. For the same compound, the elimination half-life entry in series [6] (average) is recorded as “approximately 3.8±1 hrs”. Also, the “absorption from the gastrointestinal tract” value in series [6] (in vivo) is given as “well absorbed”.
